Laboratory results as given in PMC3098941 (ACS chemical biology, 2011).

Key:
Assay type in all cases: binding
Aurora A = biological target: T1, Aurora A (Homo sapiens, UniProt O14965); test: ANS fluorescence titration of Aurora A; details: read-out: apparent Kd of ANS for Aurora A; Aurora A 5.8 μM, slit widths 10/10
T1 sequence (O14965 123-380): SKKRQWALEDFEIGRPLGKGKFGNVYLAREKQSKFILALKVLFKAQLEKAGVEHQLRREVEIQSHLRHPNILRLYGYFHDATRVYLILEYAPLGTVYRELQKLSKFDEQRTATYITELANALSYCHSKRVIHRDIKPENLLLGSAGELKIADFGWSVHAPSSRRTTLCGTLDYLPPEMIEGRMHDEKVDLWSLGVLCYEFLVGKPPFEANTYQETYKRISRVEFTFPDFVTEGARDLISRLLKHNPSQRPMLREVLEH

Rock1 = Rock1 (Homo sapiens, UniProt Q13464); test: ANS fluorescence titration of Rock 1; details: up to 100 μM ANS
Akt1 = Akt1 (Homo sapiens, UniProt P31749); test: ANS fluorescence titration of Akt; details: up to 100 μM ANS
CDK2-ANS complex = CDK2-ANS complex (Homo sapiens, UniProt P24941); test: Quenching of CDK2-ANS fluorescence by ligands; details: 50 μM ANS; for effect on CDK2-ANS fluorescence yield: concentrations as high as 300 μM, 1.6 μM CDK2

Sequence of Rock1 (Q13464 5-415): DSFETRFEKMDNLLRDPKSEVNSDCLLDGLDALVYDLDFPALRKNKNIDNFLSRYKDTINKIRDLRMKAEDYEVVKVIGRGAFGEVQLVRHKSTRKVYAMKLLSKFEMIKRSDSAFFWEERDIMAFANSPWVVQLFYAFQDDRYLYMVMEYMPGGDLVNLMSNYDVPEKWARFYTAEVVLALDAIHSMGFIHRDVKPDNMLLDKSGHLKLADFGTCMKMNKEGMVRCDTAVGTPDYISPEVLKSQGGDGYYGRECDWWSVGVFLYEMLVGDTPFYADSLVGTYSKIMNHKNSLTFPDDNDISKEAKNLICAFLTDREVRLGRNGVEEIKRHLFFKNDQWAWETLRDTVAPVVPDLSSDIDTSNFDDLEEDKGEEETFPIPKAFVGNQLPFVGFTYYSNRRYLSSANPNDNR
Sequence of Akt1 (P31749 whole entry): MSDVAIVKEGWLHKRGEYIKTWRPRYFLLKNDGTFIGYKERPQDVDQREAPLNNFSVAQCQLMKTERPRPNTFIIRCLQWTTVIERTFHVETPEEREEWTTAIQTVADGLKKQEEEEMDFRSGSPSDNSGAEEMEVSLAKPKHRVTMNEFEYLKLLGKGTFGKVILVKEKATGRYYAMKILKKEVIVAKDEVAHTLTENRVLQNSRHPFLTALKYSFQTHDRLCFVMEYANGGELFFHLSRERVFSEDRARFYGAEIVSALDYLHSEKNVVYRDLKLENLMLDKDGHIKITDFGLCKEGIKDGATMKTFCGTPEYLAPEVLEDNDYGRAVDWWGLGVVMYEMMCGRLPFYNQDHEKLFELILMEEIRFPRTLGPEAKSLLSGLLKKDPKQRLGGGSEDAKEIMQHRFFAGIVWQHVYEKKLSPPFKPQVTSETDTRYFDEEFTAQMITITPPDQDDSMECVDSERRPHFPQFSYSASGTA

effect on CDK2-ANS fluorescence yield (CDK2-ANS complex)	effect on CDK2-ANS fluorescence (CDK2-ANS complex; concentrations up to 100 μM)	SMILES	Kd (Aurora A) [µM]	saturation of ANS fluorescence with Rock 1 (Rock1)	saturation of ANS fluorescence with Akt (Akt1)
–	–	O=S(=O)(O)c1cccc2cccc(Nc3ccccc3)c12 [ANS, 8-anilino-1-naphthalene sulfonate]	54	saturation was not reached	saturation was not reached
only marginally affected	did not appear to affect	Nc1ncnc2c1ncn2[C@@H]1O[C@H](COP(=O)(O)OP(=O)(O)OP(=O)(O)O)[C@@H](O)[C@H]1O [ATP]	–	–	–
only marginally affected	–	COc1ccc(O)c(-c2nc(N)nc(N)n2)c1 [JWS648]	–	–	–
